According to ChEMBL document CHEMBL4229529, “Synthesis, molecular docking, and biological activity of 2-vinyl chromones: Toward selective butyrylcholinesterase inhibitors for potential Alzheimer's disease therapeutics” (Bioorg Med Chem, 2018):
Activity calls are given as the source filed them. The rule behind the calls is not given here.

How the values were obtained:
[1] = biological target: Acetylcholinesterase (Homo sapiens, UniProt P22303)
Description: Inhibition of human erythrocyte AChE using acetylthiocholine iodide as substrate incubated for 10 mins followed by substrate addition by Ellman's method

[2] = biological target: T1, Liver carboxylesterase (Sus scrofa, UniProt Q29550)
T1 sequence (Q29550 whole entry): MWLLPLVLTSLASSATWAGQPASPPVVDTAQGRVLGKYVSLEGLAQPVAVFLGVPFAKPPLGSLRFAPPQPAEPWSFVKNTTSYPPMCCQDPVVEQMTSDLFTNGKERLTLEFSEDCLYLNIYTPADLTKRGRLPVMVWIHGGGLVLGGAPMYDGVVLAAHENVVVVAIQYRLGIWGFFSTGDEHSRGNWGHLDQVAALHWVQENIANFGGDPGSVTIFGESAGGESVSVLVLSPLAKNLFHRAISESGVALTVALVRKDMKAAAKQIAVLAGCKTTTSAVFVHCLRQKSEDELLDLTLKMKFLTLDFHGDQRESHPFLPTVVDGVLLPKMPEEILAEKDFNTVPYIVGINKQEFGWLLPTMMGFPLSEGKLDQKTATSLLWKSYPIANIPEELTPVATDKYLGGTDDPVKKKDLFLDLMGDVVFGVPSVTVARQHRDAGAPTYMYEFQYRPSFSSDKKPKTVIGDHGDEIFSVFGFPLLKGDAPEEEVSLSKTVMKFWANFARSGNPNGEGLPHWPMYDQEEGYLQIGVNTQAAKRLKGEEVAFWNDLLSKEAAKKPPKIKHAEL
Description: Inhibition of porcine liver carboxylesterase using 4-nitrophenol acetate as substrate incubated for 10 mins followed by substrate addition by spectrophotometric method

[3] = biological target: T1, Liver carboxylesterase; assay: in vitro; details: pig, porcine liver carboxylesterase, probe 4-nitrophenol acetate
Description: Inhibition of porcine liver carboxylesterase at 20 uM using 4-nitrophenol acetate as substrate incubated for 10 mins followed by substrate addition by spectrophotometric method relative to control

[4] = biological target: Cholinesterase (Equus caballus) (UniProt P81908); assay: Inhibition of equine serum BChE at 20 uM using butylthiocholine iodide as substrate incubated for 10 mins followed by substrate addition by Ellman's method relative to control
[5] = biological target: T2, Cholinesterase (Equus caballus, UniProt P81908)
Description: Inhibition of equine serum BChE using butylthiocholine iodide as substrate incubated for 10 mins followed by substrate addition by Ellman's method

[6] = biological target: Cholinesterase (Equus caballus) (UniProt P81908); assay: Non-competitive inhibition of equine serum BChE using butylthiocholine iodide as substrate incubated for 10 mins followed by substrate addition by Lineweaver-Burk double-reciprocal plot analysis
[7] = biological target: T2, Cholinesterase; assay: Competitive inhibition of equine serum BChE using butylthiocholine iodide as substrate incubated for 10 mins followed by substrate addition by Lineweaver-Burk double-reciprocal plot analysis

Chain of Cholinesterase (Equus caballus) (P81908 whole entry): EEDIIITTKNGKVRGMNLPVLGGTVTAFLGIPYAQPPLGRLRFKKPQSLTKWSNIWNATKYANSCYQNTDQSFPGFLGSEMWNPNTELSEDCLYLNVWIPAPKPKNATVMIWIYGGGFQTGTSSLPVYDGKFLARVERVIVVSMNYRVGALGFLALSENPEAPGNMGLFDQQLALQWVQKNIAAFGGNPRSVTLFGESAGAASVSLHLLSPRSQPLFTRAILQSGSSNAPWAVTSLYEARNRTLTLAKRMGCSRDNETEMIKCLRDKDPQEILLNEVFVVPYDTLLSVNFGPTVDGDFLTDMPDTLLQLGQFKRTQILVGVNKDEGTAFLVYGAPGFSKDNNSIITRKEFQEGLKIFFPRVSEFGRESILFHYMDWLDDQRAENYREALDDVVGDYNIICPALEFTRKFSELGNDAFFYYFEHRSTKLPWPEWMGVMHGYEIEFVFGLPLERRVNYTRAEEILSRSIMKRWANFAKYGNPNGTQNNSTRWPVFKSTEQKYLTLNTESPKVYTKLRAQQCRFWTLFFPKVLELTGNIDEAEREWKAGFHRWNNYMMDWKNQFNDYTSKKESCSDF
T2 sequence (P81908 whole entry): as above
Chain of Acetylcholinesterase (P22303 whole entry): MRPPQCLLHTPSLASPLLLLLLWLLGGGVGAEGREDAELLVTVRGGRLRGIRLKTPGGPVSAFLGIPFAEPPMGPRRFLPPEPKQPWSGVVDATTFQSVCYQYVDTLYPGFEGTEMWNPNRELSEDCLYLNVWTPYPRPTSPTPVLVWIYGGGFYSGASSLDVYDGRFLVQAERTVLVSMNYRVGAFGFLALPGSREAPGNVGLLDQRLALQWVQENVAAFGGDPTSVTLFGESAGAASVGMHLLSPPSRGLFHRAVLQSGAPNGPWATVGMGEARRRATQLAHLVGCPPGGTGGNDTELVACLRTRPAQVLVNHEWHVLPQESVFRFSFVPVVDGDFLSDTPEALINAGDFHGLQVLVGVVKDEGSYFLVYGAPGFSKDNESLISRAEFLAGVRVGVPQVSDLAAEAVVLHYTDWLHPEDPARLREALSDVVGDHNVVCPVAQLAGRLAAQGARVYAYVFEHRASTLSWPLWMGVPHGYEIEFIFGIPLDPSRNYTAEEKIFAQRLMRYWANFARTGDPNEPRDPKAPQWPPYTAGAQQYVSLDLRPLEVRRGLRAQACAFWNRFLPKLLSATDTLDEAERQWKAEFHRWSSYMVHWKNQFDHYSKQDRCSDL

| SMILES | IC50 [1] [µM] | IC50 [2] [µM] | inhibition at 10 min, 20 µM [3] [%] | inhibition [4] | IC50 [5] [µM] | alphaKi [6] [µM] | Ki [7] [µM] |
| --- | --- | --- | --- | --- | --- | --- | --- |
| C=Cc1oc2ccc(Br)cc2c(=O)c1CN(Cc1ccccc1)/C(=C/C(=O)OC)C(=O)OC | > 20 | > 20 | 15.2 | 21.9% | > 20 |  |  |
| C=Cc1oc2ccccc2c(=O)c1CN(C)/C=C/C(=O)OC |  | > 20 | 6.3 | 18.4% | > 20 |  |  |
| COC(=O)/C=C(\C(=O)OC)N1CCc2oc3ccccc3c(=O)c2C1 |  | > 20 | 19.8 | 7.5% | > 20 |  |  |
| C=Cc1oc2c(OCC)cccc2c(=O)c1CN(/C=C/C(=O)OC)Cc1ccccc1 |  | > 20 | 25.9 | 16.3% | > 20 |  |  |
| C=Cc1oc2c(OCC)cccc2c(=O)c1CN(C)/C=C/C(=O)OC |  | > 20 | 7.9 | inactive |  |  |  |
| COC(=O)/C=C(\C(=O)OC)N1CCc2oc3ccc(Br)cc3c(=O)c2C1 | > 20 | > 20 | 5.1 | 4.3% | > 20 |  |  |
| C=Cc1oc2ccccc2c(=O)c1CN(/C=C/C(C)=O)Cc1ccccc1 | > 20 | > 20 | 10 |  | 4.75 | 9.14 | 2.12 |
| CCOc1cccc2c(=O)c3c(oc12)CCN(C)C3 | > 20 | > 20 | 7.6 | inactive |  |  |  |
| CCOc1cccc2c(=O)c3c(oc12)CCN(/C(=C/C(=O)OC)C(=O)OC)C3 | > 20 | > 20 | 3.5 | 20.7% | > 20 |  |  |
| CCOc1cccc2c(=O)c3c(oc12)CCN(Cc1ccccc1)C3 | > 20 |  |  | 13.2% | > 20 |  |  |
| C=Cc1oc2c(OCC)cccc2c(=O)c1CN(/C=C/C(C)=O)Cc1ccccc1 |  |  |  |  | 50.1 |  |  |
| C=Cc1oc2ccccc2c(=O)c1CN(Cc1ccccc1)/C(=C/C(=O)OC)C(=O)OC | > 20 | > 20 | 26.4 |  | 13.8 |  |  |
| CN1CCc2oc3ccc(Br)cc3c(=O)c2C1 | > 20 |  |  | 4.2% | > 20 |  |  |
| O=c1c2c(oc3ccc(Br)cc13)CCN(Cc1ccccc1)C2 | > 20 | > 20 | 31.2 | 3.3% | > 20 |  |  |
| C=Cc1oc2ccc(Br)cc2c(=O)c1CN(/C=C/C(=O)OC)Cc1ccccc1 | > 20 | > 20 | 22.4 |  | 2.27 | 6.9 | 1.55 |
| C=Cc1oc2ccc(Br)cc2c(=O)c1CN(C)/C=C/C(=O)OC | > 20 | > 20 | 10.5 | 14.1% | > 20 |  |  |
| O=[N+]([O-])c1ccc(OP(=O)(O)Oc2ccc([N+](=O)[O-])cc2)cc1 |  |  |  | inactive |  |  |  |
| C=Cc1oc2c(OCC)cccc2c(=O)c1CN(Cc1ccccc1)/C(=C/C(=O)OC)C(=O)OC |  | > 20 | 14.4 | 11.2% | > 20 |  |  |
| C=Cc1oc2ccc(Br)cc2c(=O)c1CN(/C=C/C(C)=O)Cc1ccccc1 | > 20 | > 20 | 4.6 |  | 13.5 |  |  |
| O=c1c2c(oc3ccccc13)CCN(Cc1ccccc1)C2 | > 20 |  |  | 13% | > 20 |  |  |
| C=Cc1oc2ccccc2c(=O)c1CN(/C=C/C(=O)OC)Cc1ccccc1 | > 20 | > 20 | 23.6 |  | 6.31 | 1.94 | 1.79 |
| CN1CCc2oc3ccccc3c(=O)c2C1 |  | > 20 | 6.4 | inactive |  |  |  |
